Measurements as given in patent US8415333B2, “Bronchodilating diazaheteroaryls” (Respiratorious AB, priority 2009, dated 2013).

Key:
[1] = tested on: human bronchiols; assay: Test Procedure A: remaining contraction of human bronchus preparation on LTD4 challenge after 1 h pre-treatment with test item; type: cell-based; details: 10 nM Leukotriene D4; for % RC 1 μM: test item 1 μM pre-treatment; for % RC 10 μm: test item 10 μm, 1 h pre-treatment
Description: (§1) The usefulness of the compounds, as defined in the embodiments herein, in treating, revoking, mitigating, alleviating and/or preventing a condition of the respiratory apparatus characterized by bronchoconstriction, were evaluated in a complex and relevant in vitro model, which is described in US 2006-0040254 A1 and Skogvall, S., Berglund, M., Dalence-Guzmán, M. F., Svensson, K., Jönsson, P., Persson, C. G. A and Sterner, O., Pulmonary Pharmacology and Therapeutics, vol 20:3, 2007, p. 273-280. All references disclosed herein are hereby incorporated in their entirety by reference.
(§2) Lung tissue was obtained from patients undergoing lobectomia or pulmectomia due to lung carcinoma. The tissue was placed in a dissection chamber continuously perfused with 10 ml min^−1 of a physiological saline solution (PSS) at room temperature. An airway was identified in the cut part of the lobe, and a bronchus of 10-20 mm length, and 1-2 mm diameter was obtained. The bronchus was cut into rings of a width of about 2-3 mm. Each bronchial ring was cleaved to obtain an about rectangular oblong preparation free from cartilage, one end of which was tied to a small steel hook connected to a force transducer, while the other end of the preparation was attached to a fixed hook. This is followed by a period of adjustment, as described below. The preparation was mounted in an atmosphere containing 12% of oxygen and 6% of CO2.
(§3) The experimental assay system consists of 8 chambers, each with a volume of 6 ml, and is continuously perfused with solutions at a rate of 3 ml/min at 37° C. The chambers are equipped with force transducers (model AME 801, SensoNor A/S, Horton, Norway) allowing the individual registration of parallel preparations. The force transducers are connected to micrometer screws for stretching of tissue preparations to the desired tone. Recordings from the experiments are sampled and analysed using software from ADInstrumets. The substances to be tested and contractile agent are injected upstream of the preparation(s).
(§4) Materials. PPS (physiological saline solution, in mM): NaCl, 117; KCl, 4.87; MgSO4, 0.60; NaHCO3, 25.0; CaCl2, 1.60; glucose, 5.23. The solution is saturated with a mixture of 94% oxygen and 6% carbon dioxide, giving a pH of 7.40±0.05 in the experimental chamber. All substances are prepared as stock solution dissolved in the vehicles ethanol or DMSO. Leukotriene D4 (LTD4; Cayman Ltd.): 10 μl of a 100 μM ethanol stock solution. Substance to be tested: 10-100 μl of a 0.01-0.1 M DMSO stock solution. Solution for establishing the passive tension level: calcium-free PSS+2 mM EGTA. To exclude effects by the test substance vehicle, DMSO was added during the entire experiment except during the presence of test substance.
After mounting as described above the preparation is allowed to adjust with a low passive tone in the experimental chamber. The composition of the gas is changed to 94% (v/v) of oxygen. After a short adjustment period, PSS with 10 nM LTD4 is added to the experimental chamber upstream of the preparation (A). The preparation is stretched repeatedly (B) until it exerts a contraction force of around 150 mg. When the contraction has levelled off, LTD4-free solution is administered for 1 hour (C), resulting in a relaxation. A second injection of 10 nM LTD4 (D) makes the preparation return to the tensioned state. At the peak tension leukotriene-free solution is again administered (E). After a third injection of 10 nM LTD4 (F) the preparation returns to the tensioned state. […] After 1 h exposure to the test item, 10 nM LTD4 is added, resulting in a contraction (H). If the test item is a bronkorelaxant, a substantially weaker contraction is now observed (H) in comparison with the control LTD4 contraction (F). To obtain a measure of the test substance's bronchorelaxing effect the test and control forces registered in the experiment are compared. […]

[2] = tested on: human bronchiols; assay: Test Procedure B: remaining contraction of LTD4-contracted human bronchus preparation under sequential test item concentrations; type: cell-based; details: for % RC 0.1 μM: test item 0.1 μM for 1 h in 10 nM LTD4 PSS; for % RC 1 μM: test item 1 μM for 1 h in 10 nM LTD4 PSS; for % RC 1 μM / % RC 10 μM: sequential; for % RC 10 μM: test item 10 μM for 1 h in 10 nM LTD4 PSS
Description: as §1, §2, §3, §4
After mounting as described above the preparation is allowed to adjust with a low passive tone in the experimental chamber. The composition of the gas is changed to 94% (v/v) of oxygen. After a short adjustment period, PSS with 10 nM LTD4 is added to the experimental chamber upstream of the preparation (A). The preparation is stretched repeatedly (B) until it exerts a contraction force of around 150 mg. The preparation is kept at level contraction, plateau, with 10 nM LTD4 for 30 min (C). The preparation is then treated with 0.1 μM of the test item in 10 nM LTD4 PSS for 1 h. This is followed by the sequential treatment with 1 μM of the test item in 10 nM LTD4 PSS for 1 h (E) and finally 10 uM of the test item in 10 nM LTD4 PSS for 1 h (F). The experiment is concluded by adding calcium-free solution with addition of 2 mM EGTA for 20 min to establish the passive tension level base line (G).
The result, bronchorelaxing efficiency, is calculated as follows: by comparing and obtaining the ratio between the tensioned states (relative to base line) at the different concentrations, the bronchorelaxing efficiency of the test item is determined. The results are expressed as % remaining contraction (RC). […]

Row | Structure (SMILES) | % RC 1 μM [1] | % RC 10 μm [1] | % RC 0.1 μM [2] | % RC 1 μM [2] | % RC 10 μM [2]
1 | Cc1nc2ncccc2cc1C(=O)NCc1ccc(C(F)(F)F)cc1 [Example 2, 2-Methyl-N-(4-(trifluoromethyl)benzyl)-1,8-naphthyridine-3-carboxamide] | 77% | 23% | – | – | –
2 | Cc1nc2ncccc2cc1C(=O)NCc1csc(-c2ccccc2)n1 [Example 4, 2-Methyl-N-((2-phenylthiazol-4-yl)methyl)-1,8-naphthyridine-3-carboxamide] | – | – | 85% | 39% | 4%
3 | Cc1nc2ncccc2cc1C(=O)NCc1cccc(C(F)(F)F)c1 [Example 14, 2-Methyl-N-(3-(trifluoromethyl)benzyl)-1,8-naphthyridine-3-carboxamide] | 76% | 15% | – | – | –
4 | Cc1nc2ncccc2cc1C(=O)NCc1ccc(Cl)c(C(F)(F)F)c1 [Example 17, N-(4-Chloro-3-(trifluoromethyl)benzyl)-2-methyl-1,8-naphthyridine-3-carboxamide] | 67% | 8% | – | – | –
5 | Cc1nc2ncccc2cc1C(=O)NCc1ccc(-c2ccccc2)cc1 [Example 19, N-(Biphenyl-4-ylmethyl)-2-methyl-1,8-naphthyridine-3-carboxamide] | 41% | 17% | – | – | –
6 | Cc1nc2ncccc2cc1C(=O)NCc1ccc(N2CCN(C)CC2)c(C(F)(F)F)c1 [Example 62, 2-methyl-N-(4-(4-methylpiperazin-1-yl)-3-(trifluoromethyl)benzyl)-1,8-naphthyridine-3-carboxamide] | – | – | 92% | 63% | 17%
7 | Cc1nc2ncccc2cc1C(=O)OCc1csc(-c2ccccc2)n1 [Example 101, (2-Phenylthiazol-4-yl)methyl 2-methyl-1,8-naphthyridine-3-carboxylate] | – | – | 72% | 63% | 27%
8 | Cc1ccc2cc(C(=O)NCc3ccc(C(C)(C)C)cc3)c(C)nc2n1 [Example 109, N-(4-tert-butylbenzyl)-2,7-dimethyl-1,8-naphthyridine-3-carboxamide] | – | – | 73% | 25% | 1%
